We go through three compounds from patent US11324752B2, “Imeglimin for preventing and/or treating hepatocellular carcinoma” (ERICARE, priority 2017, dated 2022).

Molecules are shown by their SMILES. “Also recorded” adds a separate entry of the source. Structures can show the parent of a compound that is named as a salt.

The subject of data set [1] is HepG2. The experiment in a line: MTS Promega cell proliferation assay, HepG2. Particulars: period of 6 days. It is filed as cell-based, human. On the procedure:
(§1) In vitro anti-proliferative effect of imeglimin compared to that of metformin in 2 models of human hepatocellular carcinoma (HCC). Determination of IC50 (median inhibitory concentration) by the MTS Promega™ cell proliferation assay (CellTiter 96™ AQueous Nonradioactive Cell Proliferation Assay Kit).
(§2) Different mM concentrations (0, 0.1, 0.25, 0.5, 1.0, 2.5, 5.0, 7.5, 10, 25, 50, 100) of imeglimin and metformin were tested in vitro on two human CHC cell lines, HepG2 and HuH7, over a period of 6 days.

For data set [2] the following is noted: STZ diabetic rat; 35 days; 50 and 100 mg/kg/day; cited from earlier work.
For data set [3] the following is noted: seven Phase 1 studies, 216 subjects; cited from earlier work.
For data set [4] the following is noted: seven Phase 2 studies, 611 patients; cited from earlier work.
Data set [5] relates to HuH7. The experiment in a line: MTS Promega cell proliferation assay, HuH7. It counts as cell-based, human. On the procedure: as §1, §2
Another data set has as its system mitochondrial I complex. The settings on record: cited from earlier work.
The conditions of data set [6]: cited from earlier work.
The subject of a further data set is HepG2 line. The settings on record: for growth in volume of grafted tumors compared to placebo control group: FIG. 1. Here is the method: In vivo anti-tumor activity of imeglimin compared to that of metformin, alone or in combination with sorafenib, on subcutaneous xenograft models of the CHC HepG2 line in 6 week old female mice with a BALB/c nude genetic background (Harlan).
Two million cells of the HepG2 line are injected into the left side of each mouse in a volume of 100 μl (50 μl PBS-50 μl matrigel). Mice developing a palpable tumor are randomized into 7 groups of
treatment of 14 mice according to the following design: placebo, imeglimin 75 mg/kg/day, imeglimin 150 mg/kg/day, metformin 75 mg/kg/day, sorafenib 40 mg/kg/day, imeglimin 75 mg/kg/day+sorafenib 40 mg/kg/day, metformin 75 mg/kg/day+sorafenib 40 mg/kg/day.
Metformin and imeglimin are administered in drinking water, sorafenib is administered by oral gavage. Treatment begins on the day of randomization.
The treatments were administered for 63 days. The evolution curves of the tumor volumes, as well as those of the weight of the animals, were analyzed during this period. The appearance of tumors and organs has been the subject of a macroscopic anatomic-pathological analysis.

Data set [7] deals with HuH7. The settings on record: in vitro; cited from earlier work.
For data set [8] the following is noted: in particular hepatocellular carcinoma; cited from earlier work.
The subject of data set [9] is HepG2. Particulars: in vitro; cited from earlier work.
The test system of another data set is human liver tumor cells. Particulars: immunocompromised mice; cited from earlier work.
For the next data set, the system named is hepatocellular carcinoma. Particulars: cited from earlier work.
Where [10] appears, read: 1500 mg twice daily, similar to 850 mg of metformin twice daily.

In the case of `C[C@H]1N=C(N(C)C)N=C(N)N1` [imeglimin, (6R)-(+)-4-dimethylamino-2-imino-6-methyl-1,2,5,6-tetrahydro-1,3,5-triazine hydrochloride], in the data set on HepG2 [1], the “change of inhibitory effect with time” value is recorded as “increases with time”. In [2], the HbA1c entry is “significantly decreased” and the fasting blood glucose entry is “significantly decreased”. Moreover, in [3], the “administration safety and tolerance” value is “excellent administration safety and tolerance”. Moreover, the “tolerance and safety of use” value in data set [4] is “excellent tolerance and safety of use similar to those of the placebo”. Also, in the data set with HuH7 [5], the “effect on HuH7 line compared with HepG2 line” value is recorded as “much more marked”. The “change of inhibitory effect with time” value in the data set on HuH7 [5] (period of 6 days) is given as “increases with time”. The “inhibition of mitochondrial I complex” value in the data set on mitochondrial I complex is on record as “does not inhibit”. For the same compound, in data set [6] (setting [10]), the fasting glucose levels entry is “improves” and the “hemoglobin A1c” value is “improves”. Also, in data set [6] (diabetic patients), the “tolerance profile compared with metformin” value was “greater than that of metformin”. For the same compound, the “dose effect on tumor growth” value with HepG2 line (75 mg/kg/day to 150 mg/kg/day, hydrochloride) was “dose-dependent inhibitory effect on tumor growth; also recorded: increases with the doubling of doses”. In the data set with HepG2 line (63 days of treatment), the “mean weight of the animals” value is given as “did not change”, the toxicity of treatment result was “did not prove to be toxic” and the “growth in volume of grafted tumors compared to placebo control group” value (“growth … compared to placebo control group” below) is “slow down the growth in volume of grafted tumors”. Besides, the “effect on tumor volume compared with metformin” value in the data set on HepG2 line (imeglimin 150 mg/kg/day vs metformin 75 mg/kg/day (equipotent doses), hydrochloride) is “higher than metformin; also recorded: significantly greater than that of metformin”. The “effect on tumor volume compared with sorafenib” value in the data set with HepG2 line (imeglimin 150 mg/kg/day vs sorafenib 40 mg/kg/day, hydrochloride) is listed as “not significantly different from sorafenib; also recorded: does not have a significantly different effect”.
Turning to `CN(C)C(=N)N=C(N)N` [metformin], the “cell growth inhibitory activity” value in the data set with HuH7 [7] and in the data set with HepG2 [9] was “has cell growth inhibitory activity” in each case. The “cancers in treated patients with type 2 diabetes versus other anti-diabetic drugs” value in data set [8] was “fewer cancers”. Further, the “growth … compared to placebo control group” value with HepG2 line (63 days of treatment) is on record as “slow down the growth in volume of grafted tumors”. The anti-cancer activity result with human liver tumor cells is “exhibits anti-cancer activity”.
As for `CNC(=O)c1cc(Oc2ccc(NC(=O)Nc3ccc(Cl)c(C(F)(F)F)c3)cc2)ccn1` [sorafenib, reference compound], in the data set on hepatocellular carcinoma (patients with advanced hepatocellular carcinoma), the median survival time was 10.7 months. Also, in the data set with hepatocellular carcinoma (sorafenib group), the “most important side effects” value was “Diarrhea, weight loss, hand-foot syndrome and hypophosphatemia”. Moreover, in the data set with HepG2 line (63 days of treatment), the “growth … compared to placebo control group” value is recorded as “slow down the growth in volume of grafted tumors”. Also, in the data set on HepG2 line (sorafenib 40 mg/kg/day alone or with imeglimin 75 mg/kg/day), the “anti-angiogenic effect, observation at sacrifice” value was “exerts its anti-angiogenic properties”.
